In patent US20060008891A1, “Cathepsin G-related peptides as modulators of formylpeptide receptors (FPR)” (The Government of USA as repersented by the Secretary, …, priority 2004, published 2006):

How the values were obtained:
[1] = system: PKCζ; assay: PKCζ translocation in ETFR cells (confocal microscopy); format: cell-based, rat; conditions: 100 nM fMLF, 10 μg/ml CaG or PMA 500 nM, 37° C. 10 min
Protocol: (§1) ETFR cells were seeded on coverslips and cultured overnight in DMEM containing 1% FCS at 37° C. After further culture in FCS-free DMEM for 3 h, cells were treated with stimulants for indicated time periods at 37° C. and were then fixed in 4% paraformaldehyde for 5 min at room temperature. The cells were permeabilized with 0.2% Tween 20 for 30 min at 4° C. and the reaction was blocked with 5% goat normal serum for 15 min at room temperature. The rabbit anti-PKCα/β, δ, and ξ, antibodies (1:1000 in DPBS) were applied separately for 1 h at room temperature. After three rinses with DPBS, the cells were stained with FITC-labeled goat anti-rabbit secondary antibody (PharMingen, 1:1000 in DPBS) for 1 h at room temperature. The coverslips were mounted with an anti-fade, water-based mounting medium with Propidium Iodide (PI) (Vector Lab, Burlingamem, Calif.) and analyzed under a laser scanning confocal fluorescence microscope (Zeiss LSM510 NLO Meta, Jena, Germany). Excitation wavelengths 488 (for FITC) and 568 (for PI) nm were used to generate fluorescence emission in green and red, respectively.

[2] = system: PKCδ; assay: PKCδ translocation in ETFR cells; format: cell-based, rat; conditions: 100 nM fMLF, 10 μg/ml CaG or PMA 500 nM, 37° C. 10 min
Protocol: as §1, with “The cells were permeabilized with 0.2% Tween 20 for 30 min at 4° C. and the reaction was blocked with 5% goat normal serum for 15 min at room temperature.” left out, “Germany).” for “Germany). Excitation wavelengths 488 (for FITC) and 568 (for PI) nm were used to generate fluorescence emission in green and red, respectively.”

[3] = molecular target: T1, FPR (Homo sapiens, UniProt P21462); assay: Chemotaxis of HEK293 cells transfected with FPR; format: cell-based; conditions: chemotaxis index
T1 construct: expressed in transfected cells; host or cells: Rat basophilic leukemia (RBL) cells, stably transfected (ETFR cells); gift of H. Ali and R. Snyderman, Duke University
T1 sequence (P21462 1-350): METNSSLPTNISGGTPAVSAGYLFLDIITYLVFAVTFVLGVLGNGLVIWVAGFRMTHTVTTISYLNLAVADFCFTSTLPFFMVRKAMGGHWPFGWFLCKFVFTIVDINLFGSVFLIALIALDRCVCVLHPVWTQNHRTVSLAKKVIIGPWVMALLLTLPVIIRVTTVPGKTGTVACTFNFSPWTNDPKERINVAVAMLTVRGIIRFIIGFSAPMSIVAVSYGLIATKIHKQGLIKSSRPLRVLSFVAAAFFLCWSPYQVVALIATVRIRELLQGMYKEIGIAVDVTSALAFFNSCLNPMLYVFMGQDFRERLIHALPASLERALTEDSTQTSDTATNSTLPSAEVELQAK
Protocol: Human PBMC were isolated from leukopacks obtained through the courtesy of Transfusion Medicine Department, National Institutes of Health Clinical Center (Bethesda, Md.) by Ficoll-Hypaque density gradient centrifugation. Monocytes were purified from human PBMC by Percoll gradient to yield>90% pure preparations. […] H. Ali and R. Snyderman, Duke University (Durham, N.C.) and maintained in the presence of 0.8 mg/ml geneticin (G418, Life Technologies, Rockville, Md.) in DMEM supplemented with 10% FCS. B. Chemotaxis assay Migration of phagocytes and ETFR cells was assessed using a 48-well microchemotaxis chamber (Neuroprobe, Cabin John, Md.) as previously described (Hu et al. (2001) J Leukoc Biol 70 15512). […] After incubation at 37° C. in humidified air with 5% CO2 (60 min for neutrophils, 90 min for monocytes, 4.5 h for ETFR cells), the filter was removed and stained, and the cells migrating across the filter were counted with light microscopy. […]
The chimeric receptor was stably transfected into HEK293 cells (a human embryo kidney cell line) and the chemotactic activity of CaG on the transfected cells was measured and compared to the chemotactic activity of CaG on […] cells transfected with wild type FPR, using the assay for chemotaxis described in Example IB. […]

With “CaG: Cathepsin G, serine protease purified from neutrophil granules, purchased from Athens Research & Technology” the “translocation of PKCζ” value [1] was “a substantial proportion of PKCξ translocated to the cell membrane region”, the “translocation of PKCδ” value [2] was “did not induce translocation of PKCδ” and the “chemotactic activity on FPR-transfected HEK293 cells” value [3] was “chemotacic for FPR-transfected HEK 293 cells”.
